Patent US4851521A, “Esters of hyaluronic acid” (priority 1985, dated 1989)

Key:
[1] = Absorption and bioavailability: plasma levels of hydrocortisone in rats; assay type: in vivo, male Sprague-Dawley rats; conditions: for average plasmatic level of hydrocortisone / Ka: s.c.; for average plasmatic level of hydrocortisone: average of 4 values; for Ka: HYC 6.5 mg/kg
Procedure: Male Sprague-Dawley rats, with a body weight of 250-350 gr were used, obtained from Charles River-Calco (Como), fed ad libitum with water and compound feed in pellets, with the code name of 4RF 21, produced by "Italiana Mangimi", licensee of Charles River.
Hydrocortisone was administered in the form of sodium hemisuccinate salt at the dose of 1.34 mg/kg (corresponding to 1 mg/kg of hydrocortisone base) by general intravenous route and at the dose of 1.34 mg/kg and 2.68 mg/ kg (corresponding to 2 mg/ kg of hydrocortisone base) by subcutaneouos route (the i.v. route was considered in order to determine the pharmacokinetic parameters which serve as a comparison for the evaluation of absorption of any other administration route).
The three HYC derivatives were administered by subcutaneous route at the dose of 6.5 and 13 mg/kg (doses corresponding to about 1 and 2 mg/kg in hydrocortisone base). […] All the compounds were injected at a constant volume of 1 ml/kg.
After administration, 0.3 ml of blood was drawn from each animal by cardiac puncture in the presence of anticoagulant (sodium heparin).
Blood drawing times were as follows: *15 mins, 30 mins, 60 mins, 120 mins, 180 min, 300 mins, 360 mins, 420 mins, 480 mins (*limited to the intraveneous route).
The hydrocortisone was dosed by radioimmunoassay method (Cortisolo Kit, Biodata, cod. 10394) using iodate tracing. […] The linearity of the method comes between 1 and 1000 ng/ml. The observation limit is 1 ng/ml.
The dosage of the cortisolemia in the rat is not influenced either by the base levels or by the circadian rhythms of this hormone, as the metabolic pattern of the endogenous glucocorticoid hormones in the rat, leads to the production of corticosterone and not cortisol (see E. L. Green: Biology of the laboratory mouse.)
In Table 3 are reported the results of the average plasma levels of hydrocortisone, after i.v. and s.c. injection (1 and 2 mg/kg). […] In Table 4 are reported the pharmacokinetic parameters of cortisol calculated graphically from the plasmatic decline curves. In Table 3 are reported the average levels of cortisol after subcutaneous administration of the three HYC derivatives at doses of 6.5 and 13 mg/kg (corresponding to about 1 and 2 mg/kg in hydrocortisone base). In Table 4 are reported the pharmacokinetic parameters relative to cortisol calculated graphically with the method of residues from the plasma absorption curve of the three HYC products.

[2] = system: dextran-induced aseptic (exudative) phlogosis in rabbit eye; test: Anti-inflammatory activity: dextran-induced aseptic (exudative) phlogosis in rabbit eye; assay type: in vivo; conditions: for eyes without signs of phlogosis out of the total number of eyes treated: 3 drops every 6 hours, 4 treated eyes
Procedure: 9 hyaluronic esters of cortisone, hydrocortisone and fluorocortisone (9 fluorohydrocortisone) identified by the code names HYC1-HYC9 were tested. Table 1 describes these compounds and gives the percentages of the number of carboxylic groups of HY which are esterified with the above corticosteroids, and where applicable the percentage esterified with simple aliphatic alcohols and those salified with alkaline metals (Na):
Aseptic (exudative) phlogosis was induced in 48 rabbits by intraocular injection of dextran (1% in saline, 0.1 ml). The various products were administered by instillation in the right eye (RE) of the rabbits, while in the left eye (LE) only vehicle was instilled.
The treament (3 drops every 6 hours) was begun immediately after the injection of dextran and was continued for 16 days.
Both eyes of each rabbit were observed through a slit lamp. In particular the following were examined: the state of the conjunctiva and corneal epithelium, the anterior chamber (presence of Tyndall effect), state of the iris and of the posterior segment of the eye. With a Goldmann lens, the state of the back of the eye was examined. The presence of signs of inflammation (hyperemia, exudate, cloudiness of the liquids, etc.) was recorded.
Values are expressed as percentages (number of eyes without signs of phlogosis out of the total number of eyes treated). In brackets are the number of treated eyes.

[3] = 10 days from start of phlogosis
[4] = 12 days from start of phlogosis
[5] = 14 days from start of phlogosis
[6] = 16 days from start of phlogosis

Compound	average plasmatic level of hydrocortisone ([1]; 6.5 mg/kg, 30 min) [ng/mL]	average plasmatic level of hydrocortisone ([1]; 6.5 mg/kg, 60 min) [ng/mL]	average plasmatic level of hydrocortisone ([1]; 6.5 mg/kg, 120 min) [ng/mL]	average plasmatic level of hydrocortisone ([1]; 6.5 mg/kg, 180 min) [ng/mL]	average plasmatic level of hydrocortisone ([1]; 6.5 mg/kg, 360 min) [ng/mL]	average plasmatic level of hydrocortisone ([1]; 6.5 mg/kg, 420 min) [ng/mL]	average plasmatic level of hydrocortisone ([1]; 6.5 mg/kg, 480 min) [ng/mL]	average plasmatic level of hydrocortisone ([1]; 13 mg/kg, 30 min) [ng/mL]	average plasmatic level of hydrocortisone ([1]; 13 mg/kg, 60 min) [ng/mL]	average plasmatic level of hydrocortisone ([1]; 13 mg/kg, 120 min) [ng/mL]	average plasmatic level of hydrocortisone ([1]; 13 mg/kg, 180 min) [ng/mL]	average plasmatic level of hydrocortisone ([1]; 13 mg/kg, 300 min) [ng/mL]	eyes without signs of phlogosis out of the total number of eyes treated ([2]; 2 days from start of phlogosis) [%]	eyes without signs of phlogosis out of the total number of eyes treated ([2]; 4 days from start of phlogosis) [%]	eyes without signs of phlogosis out of the total number of eyes treated ([2]; 6 days from start of phlogosis) [%]	eyes without signs of phlogosis out of the total number of eyes treated ([2]; 8 days from start of phlogosis) [%]	eyes without signs of phlogosis out of the total number of eyes treated [2, 3] [%]	eyes without signs of phlogosis out of the total number of eyes treated [2, 4] [%]	eyes without signs of phlogosis out of the total number of eyes treated [2, 5] [%]	eyes without signs of phlogosis out of the total number of eyes treated [2, 6] [%]	further results
(mixed) ethanol and hydrocortisone ester (C21) of hyaluronic acid (HY) [HYC5]	33.41	49.52	60.52	61.17	42.44	30.43	25.85	26.55	38.77	41.56	44.81	32.51	0.0	0.0	25.0	50.0	50.0	100.0	100.0	100.0	average plasmatic level of hydrocortisone ([1]; 13 mg/kg, 360 min): 31.92 ng/mL; average plasmatic level of hydrocortisone ([1]; 13 mg/kg, 420 min): 26.17 ng/mL; average plasmatic level of hydrocortisone ([1]; 13 mg/kg, 480 min): 22.54 ng/mL; Ka [1]: 0.65 h⁻¹; antiinflammatory activity (in words) ([2]; compared with the corresponding cortisones): most efficient of these derivatives
(partial) hydrocortisone ester (C21) of hyaluronic acid (HY) [HYC2]	27.02	35.67	42.32	37.35	26.96	24.24	18.92	32.32	50.51	62.42	58.44	51.68	0.0	0.0	0.0	25.0	50.0	100.0	100.0	100.0	average plasmatic level of hydrocortisone ([1]; 6.5 mg/kg, 300 min): 32.27 ng/mL; average plasmatic level of hydrocortisone ([1]; 13 mg/kg, 360 min): 48.17 ng/mL; average plasmatic level of hydrocortisone ([1]; 13 mg/kg, 420 min): 44.67 ng/mL; average plasmatic level of hydrocortisone ([1]; 13 mg/kg, 480 min): 39.41 ng/mL; Ka [1]: 0.86 h⁻¹
C[C@]12CCC(=O)C=C1CC[C@@H]1[C@@H]2[C@@H](O)C[C@@]2(C)[C@H]1CC[C@]2(O)C(=O)CO [Hydrocortisone, hydrocortisone, reference compound]	–	–	–	–	–	–	–	–	–	–	–	–	0.0	0.0	0.0	25.0	25.0	50.0	100.0	100.0	linearity of kinetics (in words) ([1]; cortisol plasma kinetics, dose dependence): linear; Cmax (in words) ([1]; rat, in vivo): the same as the i.v. route levels at the same dose; Tmax ([1]; rat, in vivo, sc): ~30 min; AUC at 8 h ([1]; rat, in vivo, sc, 1 mg/kg): 192 ng·h/mL; Tmax ([1]; rat, in vivo, sc, 1 mg/kg): 30 min; bioavailability ([1]; rat, in vivo, sc, 1 mg/kg): 70.3%; half-life ([1]; rat, in vivo, sc, 1 mg/kg): 270 min; k el ([1]; rat, in vivo, sc, 1 mg/kg): 4.17e-05 s⁻¹
C[C@]12CCC(=O)C=C1CC[C@H]1[C@@H]3CC[C@](O)(C(=O)CO)[C@@]3(C)C[C@H](O)[C@@]12F [Fluorocortis., 9 fluorohydrocortisone, reference compound]	–	–	–	–	–	–	–	–	–	–	–	–	0.0	0.0	0.0	0.0	25.0	50.0	100.0	100.0	–
(partial and mixed) ethanol and hydrocortisone ester (LC21) of hyaluronic acid (HY) [HYC8]	33.75	45.23	44.75	41.80	26.10	20.50	17.60	34.62	51.69	108.01	76.64	54.66	0.0	0.0	0.0	25.0	50.0	100.0	100.0	100.0	average plasmatic level of hydrocortisone ([1]; 6.5 mg/kg, 300 min): 30.00 ng/mL; average plasmatic level of hydrocortisone ([1]; 13 mg/kg, 360 min): 47.17 ng/mL; average plasmatic level of hydrocortisone ([1]; 13 mg/kg, 420 min): 42.60 ng/mL; average plasmatic level of hydrocortisone ([1]; 13 mg/kg, 480 min): 37.03 ng/mL; Ka [1]: 0.94 h⁻¹
(partial) cortisone ester C21) of hyaluronic acid (HY) [HYC1]	–	–	–	–	–	–	–	–	–	–	–	–	0.0	0.0	0.0	25.0	50.0	50.0	100.0	100.0	–
